The source made the active and inactive calls. The calls are words filed in the database; no cut-off is given here.
Key:
Mus musculus [1] = test: Inhibition of aspermatogenic activity of bovine seminal ribonuclease in mouse ICR assessed as weight of the testes at 1:100 ratio of BS-Rnase+compound after 10 days administered once into left testes; type: functional, organism-based; details: Testis
Mus musculus [2] = test: Inhibition of aspermatogenic activity of bovine seminal ribonuclease in mouse ICR assessed as width of spermatogenic layer at 1:100 ratio of BS-Rnase+compound after 10 days administered once into left testes; type: functional, organism-based
Mus musculus [3] = test: Inhibition of aspermatogenic activity of bovine seminal ribonuclease in mouse ICR assessed as width of spermatogenic layer at 1:1 ratio of BS-Rnase+compound after 10 days administered once into left testes; type: functional, organism-based
Ribonuclease pancreatic = target: T1, Ribonuclease pancreatic (Bos taurus, UniProt P61823); test: Inhibition of bovine pancreatic ribonuclease A assessed as enzyme activity by spectrophotometric method pH 6
T1 sequence (P61823 whole entry): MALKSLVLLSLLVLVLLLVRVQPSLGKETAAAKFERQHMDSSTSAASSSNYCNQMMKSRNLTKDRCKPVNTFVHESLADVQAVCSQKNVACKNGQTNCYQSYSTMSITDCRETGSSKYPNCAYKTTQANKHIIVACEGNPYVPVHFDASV

Mus musculus [4] = test: Inhibition of aspermatogenic activity of bovine seminal ribonuclease in mouse ICR assessed as weight of the testes at 1:1 ratio of BS-Rnase+compound after 10 days administered once into left testes; type: functional, organism-based; details: Testis
Mus musculus [5] = test: Inhibition of aspermatogenic activity of bovine seminal ribonuclease in mouse ICR assessed as diameter of somniferous tubule at 1:100 ratio of BS-Rnase+compound after 10 days administered once into left testes; type: functional, organism-based
Mus musculus [6] = test: Inhibition of aspermatogenic activity of bovine seminal ribonuclease in mouse ICR assessed as diameter of somniferous tubule at 1:1 ratio of BS-Rnase+compound after 10 days administered once into left testes; type: functional, organism-based
Mus musculus [7] = test: Inhibition of aspermatogenic activity of bovine […] assessed as diameter of somniferous tubule at 1:100 ratio of BS-Rnase+compound after 10 days administered once into left testes; type: functional, organism-based
Mus musculus [8] = test: Inhibition of aspermatogenic activity of bovine […] assessed as width of spermatogenic layer at 1:100 ratio of BS-Rnase+compound after 10 days administered once into left testes; type: functional, organism-based
Mus musculus [9] = test: Inhibition of aspermatogenic activity of bovine […] assessed as weight of the testes at 1:1 ratio of BS-Rnase+compound after 10 days administered once into left testes; type: functional, organism-based; details: Testis
Seminal ribonuclease = target: T2, Seminal ribonuclease (Bos taurus, UniProt P00669); test: Inhibition of bovine seminal ribonuclease assessed as enzyme activity by spectrophotometric method at pH 6
T2 sequence (P00669 whole entry): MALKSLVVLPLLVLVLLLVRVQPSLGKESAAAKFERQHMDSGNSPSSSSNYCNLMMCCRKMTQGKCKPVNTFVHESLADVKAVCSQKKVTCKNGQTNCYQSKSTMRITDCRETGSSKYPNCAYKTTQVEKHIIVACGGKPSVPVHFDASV

Activity (Mus musculus [1]) | Activity (Mus musculus [2]) | Ki (Ribonuclease pancreatic) [µM] | Activity (Mus musculus [5]) | further results | Compound
inactive | inactive | 20.1 | inactive | Activity (Mus musculus [3]): Active; Activity (Mus musculus [4]): Active; Activity (Mus musculus [6]): Active | Nc1ccn([C@@H]2O[C@H](CO)[C@@H](OP(=O)(O)O)[C@H]2O)c(=O)n1
 |  | 11.6 |  |  | O=c1ccn([C@@H]2O[C@H](CO)[C@@H](O)[C@H]2OP(=O)(O)O)c(=O)[nH]1
inactive | inactive | 844 | inactive | Activity (Mus musculus [7]): Active; Activity (Mus musculus [8]): Active; Activity (Mus musculus [9]): Active; Ki (Seminal ribonuclease): 1.56 mM | Nc1ccn([C@@H]2O[C@H](COP(=O)(O)O)[C@@H](O)[C@H]2O)c(=O)n1
 |  | 78.5 |  |  | O=c1ccn([C@@H]2O[C@H](CO)[C@@H](OP(=O)(O)O)[C@H]2O)c(=O)[nH]1
 |  | 647 |  |  | O=c1ccn([C@@H]2O[C@H](COP(=O)(O)OP(=O)(O)O)[C@@H](O)[C@H]2O)c(=O)[nH]1 [URIDINE_DIPHOSPHATE]

— ChEMBL document CHEMBL1153815, “Mapping the ribonucleolytic active site of bovine seminal ribonuclease. The binding of pyrimidinyl phosphonucleotide inhibitors” (Eur J Med Chem, 2009)
